The results in this text go back to paper PMC7978357, “Indole-3-acetic acid is a physiological inhibitor of TORC1 in yeast” (PLoS Genetics, 2021).

Series [1] addresses T1, TORC1 (Tor1 kinase subunit) (Saccharomyces cerevisiae, UniProt P35169).
T1 construct: TORC1 complex purified from yeast via Tco89-TEV-TAP (quantified with respect to the Tor1 subunit); with Kog1, Lst8, Tco89 (TORC1 subunits)
Description: in vitro radioactive [γ-32P]-ATP kinase assay with purified TORC1, Lst4 loop substrate; enzyme kinetics. The series is classed as biochemical.

Series [2] deals with Nc1ncnc2c1ncn2[C@@H]1O[C@H](COP(=O)(O)OP(=O)(O)OP(=O)(O)O)[C@@H](O)[C@H]1O. Description: purified protein. As to conditions: Mg2+.

T1 sequence (P35169 whole entry): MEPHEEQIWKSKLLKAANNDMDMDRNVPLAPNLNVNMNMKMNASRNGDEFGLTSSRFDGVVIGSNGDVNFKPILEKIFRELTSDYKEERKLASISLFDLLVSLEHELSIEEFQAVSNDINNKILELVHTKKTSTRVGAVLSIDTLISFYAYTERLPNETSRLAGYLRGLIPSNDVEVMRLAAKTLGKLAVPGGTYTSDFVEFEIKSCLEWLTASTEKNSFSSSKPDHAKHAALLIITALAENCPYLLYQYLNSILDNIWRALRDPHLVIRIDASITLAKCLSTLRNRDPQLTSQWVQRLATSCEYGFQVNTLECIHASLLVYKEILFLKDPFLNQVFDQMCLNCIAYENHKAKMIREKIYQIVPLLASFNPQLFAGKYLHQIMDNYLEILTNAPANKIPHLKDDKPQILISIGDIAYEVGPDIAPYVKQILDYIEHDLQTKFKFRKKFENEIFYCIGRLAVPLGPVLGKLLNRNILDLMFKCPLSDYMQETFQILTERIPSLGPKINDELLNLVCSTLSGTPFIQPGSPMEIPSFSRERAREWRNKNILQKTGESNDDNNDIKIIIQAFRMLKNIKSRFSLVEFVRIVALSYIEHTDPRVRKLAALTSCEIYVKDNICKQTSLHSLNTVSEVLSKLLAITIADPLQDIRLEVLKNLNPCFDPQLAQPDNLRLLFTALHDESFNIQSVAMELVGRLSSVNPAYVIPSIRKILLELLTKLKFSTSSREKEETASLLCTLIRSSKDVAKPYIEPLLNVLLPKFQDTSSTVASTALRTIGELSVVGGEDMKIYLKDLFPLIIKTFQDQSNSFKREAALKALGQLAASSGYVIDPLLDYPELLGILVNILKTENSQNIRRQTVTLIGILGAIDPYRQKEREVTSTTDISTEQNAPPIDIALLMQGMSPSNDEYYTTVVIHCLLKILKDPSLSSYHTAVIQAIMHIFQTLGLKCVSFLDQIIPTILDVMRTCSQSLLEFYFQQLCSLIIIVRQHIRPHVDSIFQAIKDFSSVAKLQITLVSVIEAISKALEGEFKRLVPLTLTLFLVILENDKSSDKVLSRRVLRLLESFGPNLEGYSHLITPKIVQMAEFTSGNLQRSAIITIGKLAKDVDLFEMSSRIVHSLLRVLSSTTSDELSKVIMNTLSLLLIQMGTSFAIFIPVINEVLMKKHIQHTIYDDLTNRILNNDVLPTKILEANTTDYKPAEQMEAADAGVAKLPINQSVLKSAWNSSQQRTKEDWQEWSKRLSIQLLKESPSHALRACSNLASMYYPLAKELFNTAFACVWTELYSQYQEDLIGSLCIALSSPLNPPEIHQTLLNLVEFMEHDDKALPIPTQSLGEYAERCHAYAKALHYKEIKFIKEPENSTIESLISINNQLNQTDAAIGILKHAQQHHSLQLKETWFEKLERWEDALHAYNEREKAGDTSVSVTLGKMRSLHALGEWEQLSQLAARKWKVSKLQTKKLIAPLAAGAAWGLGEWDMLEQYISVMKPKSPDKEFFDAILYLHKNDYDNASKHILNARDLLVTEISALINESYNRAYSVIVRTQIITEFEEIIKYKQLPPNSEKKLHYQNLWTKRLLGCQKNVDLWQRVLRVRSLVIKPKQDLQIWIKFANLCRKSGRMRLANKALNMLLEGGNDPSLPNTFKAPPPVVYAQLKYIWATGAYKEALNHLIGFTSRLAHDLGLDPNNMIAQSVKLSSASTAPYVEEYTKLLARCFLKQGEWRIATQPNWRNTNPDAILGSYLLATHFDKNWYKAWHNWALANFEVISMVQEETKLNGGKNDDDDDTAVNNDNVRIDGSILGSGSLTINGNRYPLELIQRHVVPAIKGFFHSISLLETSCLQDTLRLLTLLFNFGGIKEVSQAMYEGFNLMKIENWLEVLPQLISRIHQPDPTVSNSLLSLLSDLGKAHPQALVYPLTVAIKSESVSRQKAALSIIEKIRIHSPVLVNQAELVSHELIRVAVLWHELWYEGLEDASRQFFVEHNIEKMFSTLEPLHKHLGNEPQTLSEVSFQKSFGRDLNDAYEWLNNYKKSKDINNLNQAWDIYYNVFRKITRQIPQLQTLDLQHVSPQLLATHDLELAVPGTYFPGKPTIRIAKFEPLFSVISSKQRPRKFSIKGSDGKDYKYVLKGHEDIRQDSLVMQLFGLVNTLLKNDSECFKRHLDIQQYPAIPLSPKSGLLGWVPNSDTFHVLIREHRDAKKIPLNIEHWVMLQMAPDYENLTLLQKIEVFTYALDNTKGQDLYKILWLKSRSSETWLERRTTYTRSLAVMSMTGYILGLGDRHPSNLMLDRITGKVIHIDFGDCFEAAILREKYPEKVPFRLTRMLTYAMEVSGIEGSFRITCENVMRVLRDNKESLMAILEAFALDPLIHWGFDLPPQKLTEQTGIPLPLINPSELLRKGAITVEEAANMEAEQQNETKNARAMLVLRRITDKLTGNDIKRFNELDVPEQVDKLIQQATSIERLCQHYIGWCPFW
T1 sequence (P38873 whole entry partner): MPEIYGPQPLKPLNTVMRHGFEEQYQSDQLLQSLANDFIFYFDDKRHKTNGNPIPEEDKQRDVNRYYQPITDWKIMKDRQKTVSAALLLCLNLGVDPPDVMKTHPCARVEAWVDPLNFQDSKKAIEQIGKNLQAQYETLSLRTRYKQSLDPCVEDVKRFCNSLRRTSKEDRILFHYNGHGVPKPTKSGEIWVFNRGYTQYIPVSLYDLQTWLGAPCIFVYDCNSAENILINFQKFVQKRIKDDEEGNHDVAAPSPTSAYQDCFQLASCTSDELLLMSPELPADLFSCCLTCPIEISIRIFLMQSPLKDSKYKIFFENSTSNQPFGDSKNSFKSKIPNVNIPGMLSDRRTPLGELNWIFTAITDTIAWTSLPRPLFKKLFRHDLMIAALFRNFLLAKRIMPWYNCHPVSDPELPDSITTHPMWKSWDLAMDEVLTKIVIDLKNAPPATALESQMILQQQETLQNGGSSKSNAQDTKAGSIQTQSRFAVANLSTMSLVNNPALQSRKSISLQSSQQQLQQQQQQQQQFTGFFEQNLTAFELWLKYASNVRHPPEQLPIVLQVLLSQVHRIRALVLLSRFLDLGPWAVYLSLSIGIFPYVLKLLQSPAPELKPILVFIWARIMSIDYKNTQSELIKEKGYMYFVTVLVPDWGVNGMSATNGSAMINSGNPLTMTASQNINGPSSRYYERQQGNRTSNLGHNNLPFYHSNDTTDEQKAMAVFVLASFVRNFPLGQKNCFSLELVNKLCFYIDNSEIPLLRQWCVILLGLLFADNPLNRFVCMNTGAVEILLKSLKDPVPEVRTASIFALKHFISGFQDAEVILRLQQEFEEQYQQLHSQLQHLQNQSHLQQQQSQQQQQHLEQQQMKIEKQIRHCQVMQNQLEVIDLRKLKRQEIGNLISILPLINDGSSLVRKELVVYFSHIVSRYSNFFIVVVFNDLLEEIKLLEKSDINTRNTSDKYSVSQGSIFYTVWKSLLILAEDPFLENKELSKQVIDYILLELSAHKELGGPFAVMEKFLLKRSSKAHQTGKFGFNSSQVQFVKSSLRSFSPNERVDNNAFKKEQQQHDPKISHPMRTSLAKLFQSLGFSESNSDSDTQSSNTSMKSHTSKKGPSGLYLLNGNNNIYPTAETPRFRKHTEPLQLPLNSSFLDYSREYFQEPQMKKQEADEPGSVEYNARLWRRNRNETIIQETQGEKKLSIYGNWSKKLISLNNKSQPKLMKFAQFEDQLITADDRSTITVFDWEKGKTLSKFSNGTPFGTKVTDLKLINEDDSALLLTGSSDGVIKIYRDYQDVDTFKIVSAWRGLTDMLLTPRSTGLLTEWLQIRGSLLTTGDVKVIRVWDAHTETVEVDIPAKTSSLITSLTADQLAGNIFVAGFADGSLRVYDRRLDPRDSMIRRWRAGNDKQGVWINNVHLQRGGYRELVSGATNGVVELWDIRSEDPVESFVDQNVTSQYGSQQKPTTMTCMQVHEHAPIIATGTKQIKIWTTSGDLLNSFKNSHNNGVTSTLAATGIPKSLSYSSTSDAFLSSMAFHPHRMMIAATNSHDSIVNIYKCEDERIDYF
T1 sequence (P41318 whole entry partner): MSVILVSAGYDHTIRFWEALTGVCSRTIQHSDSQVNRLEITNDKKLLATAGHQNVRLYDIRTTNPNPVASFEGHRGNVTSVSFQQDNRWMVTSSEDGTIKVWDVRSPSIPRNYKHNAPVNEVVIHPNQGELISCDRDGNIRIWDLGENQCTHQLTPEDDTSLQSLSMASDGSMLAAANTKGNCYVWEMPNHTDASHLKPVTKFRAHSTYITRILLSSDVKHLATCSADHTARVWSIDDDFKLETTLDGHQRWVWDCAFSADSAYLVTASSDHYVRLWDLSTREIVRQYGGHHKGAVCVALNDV

`O=C(O)Cc1c[nH]c2ccccc12` [IAA, Indole-3-acetic acid]: the Ki (as a rule, the dissociation constant of the complex between target and ligand, obtained from inhibition or displacement) in series [1] was 2400 nM. Regarding “TORC1 (Tor1 kinase subunit) (Saccharomyces cerevisiae S288C)”, the Michaelis-Menten constant (Km) (usually the substrate concentration at which the rate is half of its maximum) in series [2] was determined as 50.5 µM.
